In test [1] the target is T1, hyaluronidase of bovine origin (BTH, Bovine Testis hyaluronidase) (Bos taurus, UniProt Q2YDK3).
T1 sequence (Q2YDK3 1-553): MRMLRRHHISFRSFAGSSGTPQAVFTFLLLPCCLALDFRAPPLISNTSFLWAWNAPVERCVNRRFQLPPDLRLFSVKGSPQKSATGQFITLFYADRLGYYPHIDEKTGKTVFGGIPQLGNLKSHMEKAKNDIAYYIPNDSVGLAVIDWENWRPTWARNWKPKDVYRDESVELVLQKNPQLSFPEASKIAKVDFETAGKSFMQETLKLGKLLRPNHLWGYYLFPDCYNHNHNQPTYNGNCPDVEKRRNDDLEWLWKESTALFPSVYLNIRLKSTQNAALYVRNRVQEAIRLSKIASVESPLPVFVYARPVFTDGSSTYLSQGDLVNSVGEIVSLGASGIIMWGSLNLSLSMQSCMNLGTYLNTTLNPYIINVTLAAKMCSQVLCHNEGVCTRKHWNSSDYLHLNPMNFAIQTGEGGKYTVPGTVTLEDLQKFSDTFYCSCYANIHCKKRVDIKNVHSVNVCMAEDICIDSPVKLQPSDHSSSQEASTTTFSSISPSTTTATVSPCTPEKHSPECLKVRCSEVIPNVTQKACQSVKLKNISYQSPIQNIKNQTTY
The test is described as follows: Assay of hyaluronidase activity (residual HA, HA-ELISA). The test is classed as biochemical. The protocol:
Hyaluronidase activity is measured by the assay of residual hyaluronic acid (HA). The substrate is fixed to a carrier then placed in the presence of an enzyme and a quantity of compound to be tested. The residual HA i.e. the non-hydrolyzed HA is assayed using a HA-Elisa detection system: Hyaluronan enzyme-linked immunosorbent assay (Echelon Biosciences®).
0.5 units of hyaluronidase of bovine origin (BTH, Bovine Testis hyaluronidase) were pre-incubated at 37° C. with the compound to be tested. This mixture was deposited on the HA fixed to the surface of a microplate well. The enzymatic reaction took place at pH 7.2n at 37° C. Washing was followed by a recognition step of residual HA by hyaluronectin (NH). The quantity of bonded NH was measured by ELISA using an anti-NH antibody conjugated with alkaline phosphatase. The p-nitrophenyl phosphate disodium salt (pnNpp) substrate of the phosphatase allows spectrometric detection at 405 nm. (Delpech B et al., Analytical Biochemistry 149, 555(565 (1985); Robert Stern et al. Analytical Biochemistry 251, 263-269 (1997)). OD intensity was correlated with the quantity of residual HA. The quantity of residual HA is directly linked to enzymatic activity. In the presence of an inhibitor, the larger the quantity of residual HA the more the sample is inhibiting. A percentage inhibition of hyaluronidase will be expressed.
Therefore the net enzymatic activities were calculated which represent the difference in mean gross activity without enzyme and the gross activity of the enzyme with or without the compound to be tested.
The percentage enzymatic inhibition related to the compound to be tested was calculated as follows: % inhibition=(Maximum net enzymatic activity)−Net enzymatic activity in the presence of the compound to be tested)/Maximum net enzymatic activity.
where the maximum net enzymatic activity represents the mean net enzymatic activity of 0.5 U.
In general terms: ELISA stands for enzyme-linked immunosorbent assay.

Test [2] relates to B16-F10 cells. The test is described as follows: Assay of melanin in B16-F10 cells (colorimetric, α-MSH stimulated). The test is classed as cell-based, murine. The settings on record: for inhibition at 10 µM / inhibition at 20 µM / IC50 / inhibition at 50 µM / inhibition at 100 µM: Mus musculus; for inhibition at 10 µM / inhibition at 20 µM / inhibition at 50 µM / inhibition at 100 µM: B16-F10, 72 hours, read-out: Percentage inhibition of intracellular melanin; for IC50: B16-F10, α-MSH stimulated, read-out: IC50 intracellular melanin. The protocol: Similarly, to evidence the depigmenting activity of the compounds of general formula (I) according to the invention, the effect of these compounds was measured on the synthesis of melanin by colorimetric assay on a cell line of murine melanomas: line B16-F10.
This is a test to measure the synthesis of melanin by colorimetric assay on a cell line of murine melanomas: line B16-F10. This test allows the evaluation of the depigmenting property of active ingredients.
The B16-F10 cells were seeded onto 96-well plates in DMEM medium supplemented with FCS (fetal calf serum) and incubated 24 hours at 37° C., 5% CO2. The cells were then stimulated with α-MSH (to stimulate the synthesis of melanin, the stimulation observed was about 150%) and treated 72 hours with the active ingredients to be tested. Each concentration of active ingredient was tested at least in triplicate. Total melanin followed by intracellular melanin dissolved in lysis buffer were then assayed by absorbency reading at 405 nm. The total proteins were determined in the lysate and the results are expressed in mg melanin/mg proteins. The percentage activity was calculated as follows: […]
A negative value indicates an inhibition, whereas a positive value indicates induced synthesis of melanin.

Test [3] has as its system Human dermal papilla cells. The test is described as follows: In vitro stimulation of the proliferation of dermal papilla cells (BrdU incorporation). The format is cell-based. The method, then: Human dermal papilla cells (Promocell) were placed in culture and held in early passage culture in DMEM medium supplemented with 10% FCS. They were then seeded in a 96-well plate in DMEM medium supplemented with 10% FCS for 12 h. The culture medium was replaced by serum-free DMEM medium then by DMEM supplemented with 1% FCS and molecules 1, 2, 3 and 4 at the different tested concentrations After incubation for 60 h, cell proliferation was evaluated by incorporation of BrdU.
The diagrams in appended FIG. 1 show the increase in BrdU incorporation and the stimulated cellular proliferation of the cells in the presence of the different molecules (as a percent of the control).
For orientation: Uptake of a labelled nucleoside into DNA is a usual measure of proliferation.

Test [4] deals with human hair follicle. Description: Stimulation of the growth of the human hair follicle (Philpott culture). The format is cell-based. The settings on record: 15 μM; for D4 % activity (hair growth stimulation compared with the control) / D4 % growth: 4 days' culture; for D8 % activity (hair growth stimulation compared with the control) / D8 % growth: 8 days' culture. The protocol: (§1) Biopsies of the occipital region of a human scalp were obtained from operative waste. The hair follicles were isolated by micro-dissection under binocular magnification. They were individually placed in culture following Philpott's technique (Philpott M P et al, J Cell Sci. 97:463-471, 1990). The hair follicles in anagen phase were incubated in 24-well culture dishes in the presence of William's medium supplemented with 10 μg/mL Insulin, 10 μg/mL Transferrin, 10 ng/mL Hydrocortisone, 1 mM Glutamax I, 100 U/mL Penicillin, 100 μg/mL Streptomycin, 250 ng/mL Amphotericin B and in the presence of molecules 3 or 4 for 11 days. The incubation medium was regularly renewed. The lengthening (in μm) of each hair follicle was measured at 4 and 8 days' culture in captured images of the hair follicles.
The diagrams in appended FIG. 2 show the effect of molecules 3 and 4 on the lengthening of hair follicles after incubation for 4 days and for 8 days.
The following table (Table 5) gives the growth percentages obtained for each treatment condition and the percentages for stimulated hair growth obtained with molecules 3 and 4 compared with the control.

Test [5] relates to human hair follicle. Description: Evaluation of hair bulb degeneration (apoptotic follicles at D11). The format is cell-based. The protocol: as §1
The degeneration of the follicle when kinetics cease after 11 culture days, is evaluated by observation of morphological damage of the hair bulb (rounding, deformation). The percentage apoptosis is calculated by counting the number of apoptotic hair follicles relative to the total number of follicles

Setting [6] is: 0.5 U BTH, read-out: Enzymatic inhibition (mean as a percentage).

Entries after “also recorded” stand apart in the source; their conditions may differ.

Usually inhibition stands for the change of the read-out against control, counted positive when it falls. Consider `CCCCCCCCCCCCCCCC(=O)OC[C@H](O)[C@H]1OC(=O)C(O)=C1O` [6-ascorbyl palmitate, reference compound], for which the “Effect on hyaluronidase” value in test [1] was “advantageously inhibits hyaluronidase, from 10 to 250 μM, with dose effect”. In test [1] (setting [6]), the inhibition at 10 µM is 31% and the inhibition at 50 µM turned out to be 71%. Besides, the inhibition at 25 µM in test [1] (25 μM, 0.5 U BTH, read-out: Enzymatic inhibition (mean as a percentage)) came to 57%. For the same compound, in test [1] (100 μM, 0.5 U BTH, read-out: Enzymatic inhibition (mean as a percentage)), the inhibition at 100 µM was 73%. For the same compound, in test [1] (200 μM, 0.5 U BTH, read-out: Enzymatic inhibition (mean as a percentage)), the inhibition at 200 µM amounted to 79%. Further, the inhibition at 250 µM in test [1] (250 μM, 0.5 U BTH, read-out: Enzymatic inhibition (mean as a percentage)) came to 112%.

In general, IC50 refers to the concentration needed to halve the response being measured. Regarding `CC/C=C\C/C=C\C/C=C\CCCCCCCC(=O)OC1=C(OC(=O)CCCCCCC/C=C\C/C=C\C/C=C\CC)C(C2COC(C)(C)O2)OC1=O` (centres unmarked) [Molecule 2, dioctadeca-9,12,15-trienoate of (9Z,9′Z,12Z,12′Z,15Z,15′Z)-2-(2,2-dimethyl-1,3-dioxolan-4-yl)-5-oxo-2,5-dihydrofuran-3,4-diyl], in test [2], the “Inhibition of the synthesis of intracellular melanin compared with vitamin C” value (“Inhibition … compared with vitamin C” below) is given as “greater than that of vitamin C”, the inhibition at 10 µM came out at 11%, the inhibition at 20 µM was 53% and the IC50 came out at 20 µM. For the same compound, the “Proliferation of dermal papilla cells” value in test [3] is “induce proliferation of the cells but to a lesser extent than molecules 1 and 4”.

Take `CCCCC/C=C\C/C=C\C/C=C\CCCCC(=O)OC1=C(OC(=O)CCCC/C=C\C/C=C\C/C=C\CCCCC)C(C2COC(C)(C)O2)OC1=O` (centres unmarked) [Molecule 3, dioctadeca-6,9,12-trienoate of (6Z,6′Z,9Z,9′Z,12Z,12′Z)-2-(2,2-dimethyl-1,3-dioxolan-4-yl)-5-oxo-2,5-dihydrofuran-3,4-diyl]: in test [2], the “Inhibition … compared with vitamin C” value was “greater than that of vitamin C”, the inhibition at 10 µM was determined as 25%, the inhibition at 20 µM was 50% and the IC50 stood at 20 µM. The “Proliferation of dermal papilla cells” value in test [3] is “induce proliferation of the cells but to a lesser extent than molecules 1 and 4”. For the same compound, in test [4], the “D4 % activity (hair growth stimulation compared with the control)” value is given as 25%, the D4 % growth is reported as 52%, the “D8 % activity (hair growth stimulation compared with the control)” value was determined as 18% and the D8 % growth is recorded as 85%.

As to `CCCCCCCC/C=C\CCCCCCCC(=O)OC1=C(OC(=O)CCCCCCC/C=C\CCCCCCCC)C(C2COC(C)(C)O2)OC1=O` (centres unmarked) [Molecule 4, dioleate of (Z)-2-(2,2-dimethyl-1,3-dioxolan-4-yl)-5-oxo-2,5-dihydrofuran-3,4-diyl], in test [2], the “Inhibition … compared with vitamin C” value is “greater than that of vitamin C”, the inhibition at 10 µM was -16%, the inhibition at 20 µM was determined as 6% and the inhibition at 50 µM worked out at 44%. Besides, the IC50 in test [2] came to 53 µM. Moreover, the “Effect on hyaluronidase” value in test [1] is reported as “strongly inhibit hyaluronidase; also recorded: equivalent to or more active than ascorbyl palmitate”. Moreover, in test [1] (setting [6]), the inhibition at 10 µM was 72% and the inhibition at 50 µM was determined as 111%. For the same compound, the “Proliferation stimulation of dermal papilla cells” value in test [3] (6.25 μM, 60 h) worked out at 113.9%. Moreover, in test [4], the “D4 % activity (hair growth stimulation compared with the control)” value worked out at 19%, the D4 % growth came to 51%, the “D8 % activity (hair growth stimulation compared with the control)” value was 12% and the D8 % growth is given as 84%. For the same compound, in test [5] (15 μM, 11 days of incubation), the “Number of apoptotic bulbs at D11 (Number of total follicles)” value was 6 (12). Further, the “% apoptosis” value in test [5] (15 μM, 11 days of incubation, control 75) was found to be 50%. Besides, the “Effect on hair degeneration” value in test [5] (11 days) is “marked limiting of hair degeneration”.

For the compound `CCCCC/C=C\C/C=C\CCCCCCCC(=O)OC1=C(O)C(C2COC(C)(C)O2)OC1=O` (centres unmarked) [Molecule 5, (9Z,12Z)-5-(2,2-dimethyl-1,3-dioxolan-4-yl)-4-hydroxy-2-oxo-2,5-dihydrofuran-3-yl octadeca-9,12-dienoate], in test [2], the “Inhibition … compared with vitamin C” value was “greater than that of vitamin C”, the inhibition at 10 µM was determined as 4%, the inhibition at 20 µM came to 13% and the inhibition at 50 µM was 35%. Besides, in test [2], the inhibition at 100 µM stood at 78% and the IC50 stood at 66 µM. The “Effect on hyaluronidase” value in test [1] is given as “strongly inhibit hyaluronidase; also recorded: equivalent to or more active than ascorbyl palmitate”. For the same compound, in test [1] (setting [6]), the inhibition at 10 µM turned out to be 31% and the inhibition at 50 µM was determined as 76%.

Regarding `CCCCCCCC/C=C\CCCCCCCC(=O)OC1=C(O)C(C2COC(C)(C)O2)OC1=O` (centres unmarked) [Molecule 6, 5-(2,2-dimethyl-1,3-dioxolan-4-yl)-4-hydroxy-2-oxo-2,5-dihydrofuran-3-yl oleate], in test [2], the “Inhibition … compared with vitamin C” value is listed as “greater than that of vitamin C”, the inhibition at 50 µM was 7%, the inhibition at 100 µM stood at 49% and the IC50 came out at 105 µM. The “Effect on hyaluronidase” value in test [1] is given as “strongly inhibit hyaluronidase; also recorded: equivalent to or more active than ascorbyl palmitate”. In addition, in test [1] (setting [6]), the inhibition at 10 µM came to 34% and the inhibition at 50 µM was determined as 106%.

The values above are taken from US8722729B2, “Unsaturated fatty acid monoesters and diesters on ascorbic acid and cosmetic uses thereof” (Pierre Fabre Dermo-Cosmetique, priority 2009, dated 2014).
